Results on nine molecules are retold here after ChEMBL document CHEMBL3085722, “Stereochemical assignment of the fungal metabolites pestalotiopsones D and E through enantiopure synthesis” (J Nat Prod, 2013).

Type in all cases: functional, organism-based
Test [1] deals with Mycolicibacterium smegmatis. The test is described as follows: Antibacterial activity against Mycobacterium smegmatis after 18 hrs by turbidity assay.
The test system of another test is Pseudomonas aeruginosa. The test is described as follows: Antibacterial activity against Pseudomonas aeruginosa after 18 hrs by turbidity assay.
The test system of test [2] is Staphylococcus epidermidis. The test can be described thus: Antibacterial activity against Staphylococcus epidermidis after 18 hrs by turbidity assay.
In the next test the test system is Escherichia coli. The test is described as follows: Antibacterial activity against Escherichia coli after 18 hrs by turbidity assay.

Converted amounts (≈) assume the structure as drawn. Some results are limits rather than exact numbers.

Turning to `COC(=O)Cc1cc(OC)cc2c1C(=O)CC(CCCCC[C@@H](C)OC(C)=O)O2` (mixture of isomers), the minimum inhibitory concentration (MIC) (in test [1]; in the test on Pseudomonas aeruginosa; in test [2]; against Escherichia coli) was greater than 500 µg/mL in each case.

`COC(=O)Cc1cc(OC)cc2oc(CCCCC[C@H](C)OC(C)=O)cc(=O)c12`: the IC50 – broadly, the concentration needed to halve the response being measured – in test [1] was greater than 500 µg/mL; in the test on Pseudomonas aeruginosa it was 465 µg/mL (≈ 1150 µM); in test [2], greater than 500 µg/mL; in the test on Escherichia coli, greater than 500 µg/mL. The MIC (in test [1]; in the test on Pseudomonas aeruginosa; in test [2]; against Escherichia coli) was greater than 500 µg/mL in each case.

On to `NC[C@H]1O[C@H](O[C@H]2[C@H](O)[C@@H](O[C@H]3O[C@H](CO)[C@@H](O)[C@H](N)[C@H]3O)[C@H](N)C[C@@H]2N)[C@H](O)[C@@H](O)[C@@H]1O` [KANAMYCIN], for which the half-inhibitory concentration (IC50) in test [1] is less than 1 µg/mL; in the test with Pseudomonas aeruginosa, 209 µg/mL (≈ 431 µM); in test [2] it was 90 µg/mL (≈ 186 µM); with Escherichia coli, less than 1 µg/mL.

Take `COC(=O)Cc1cc(OC)cc2c1C(=O)CC(CCCCC[C@H](C)OC(C)=O)O2` (mixture of isomers): the IC50 in test [1] was 492 µg/mL; in the test with Pseudomonas aeruginosa it was 445 µg/mL; in test [2], greater than 500 µg/mL; with Escherichia coli it was greater than 500 µg/mL. The MIC (in test [1]; with Pseudomonas aeruginosa; in test [2]; against Escherichia coli) was greater than 500 µg/mL in each case.

In the case of `COC(=O)Cc1cc(OC)cc2oc(CCCCC[C@@H](C)OC(C)=O)cc(=O)c12`, the MIC (in test [1]; in the test on Pseudomonas aeruginosa; in test [2]; with Escherichia coli) was greater than 500 µg/mL in each case.

For the molecule `COC(=O)Cc1cc(O)cc2oc(CCCCC[C@H](C)O)cc(=O)c12`, the concentration for half-maximal inhibition (IC50) (in test [1]; with Pseudomonas aeruginosa; in test [2]; with Escherichia coli) was greater than 500 µg/mL throughout. Moreover, the MIC (in test [1]; in the test on Pseudomonas aeruginosa; in test [2]; against Escherichia coli) was greater than 500 µg/mL each time.

Regarding `CCOC(=O)Cc1cc(O)cc2oc(CCCCC[C@@H](C)O)cc(=O)c12`, the MIC (in test [1]; in the test on Pseudomonas aeruginosa; in test [2]; against Escherichia coli) was greater than 500 µg/mL throughout.

As to `CCOC(=O)Cc1cc(O)cc2oc(CCCCC[C@H](C)O)cc(=O)c12`, the IC50 in test [1] was 484 µg/mL (≈ 1340 µM); with Pseudomonas aeruginosa, 440 µg/mL (≈ 1210 µM); in test [2], greater than 500 µg/mL; in the test with Escherichia coli, greater than 500 µg/mL. Further, the MIC (in test [1]; in the test with Pseudomonas aeruginosa; in test [2]; in the test on Escherichia coli) was greater than 500 µg/mL each time.

Consider `COC(=O)Cc1cc(O)cc2oc(CCCCC[C@@H](C)O)cc(=O)c12`, for which the MIC (in test [1]; against Pseudomonas aeruginosa; in test [2]; against Escherichia coli) was greater than 500 µg/mL throughout.
